# Assay results: ChEMBL document CHEMBL5038667, “Discovery of an Amino Acid-Modified Near-Infrared Aza-BODIPY Photosensitizer as an Immune Initiator for Potent Photodynamic Therapy in Melanoma” (J Med Chem, 2022)
# Active and inactive are the calls of the source. No cut-off for these calls is given here.
# How the values were obtained:
# B16-F10 [1] = assay: Induction of apoptosis in mouse B16-F10 cells assessed as early apoptotic cells at 250 nM incubated for 16 hrs followed by irradiated with 54 J/cm^2 light dose by Annexin V-FITC/PI based flow cytometric analysis (reference value: 6.48 %); assay type: functional
# [2] = Lipophilicity, logP of compound; assay type: physicochemical; settings: octanol/water
# B16-F10 [3] = assay: Induction of apoptosis in mouse B16-F10 cells assessed as viable cells at 250 nM incubated for 16 hrs followed by irradiated with 54 J/cm^2 of light dose by Annexin V-FITC/PI based flow cytometric analysis (reference value: 87.45 %); assay type: functional; settings: B16-F10, light or radiation study, read-out: Activity
# B16-F10 [4] = assay: Induction of apoptosis in mouse B16-F10 cells assessed as early apoptotic cells at 50 nM incubated for 16 hrs followed by irradiated with 54 J/cm^2 light dose by Annexin V-FITC/PI based flow cytometric analysis (reference value: 6.48 %); assay type: functional
# [5] = Drug localisation in mitochondria of mouse B16-F10 cells at 5 uM incubated for 16 hrs by Mito Tracker Green FM based confocal laser scanning microscopy analysis; assay type: ADME; settings: b16-f10, 16 h
# B16-F10 [6] = assay: Induction of apoptosis in mouse B16-F10 cells assessed as early apoptotic cells at 10 nM incubated for 16 hrs followed by irradiated with 54 J/cm^2 light dose by Annexin V-FITC/PI based flow cytometric analysis (reference value: 6.48 %); assay type: functional
# [7] = Drug localisation in lysosome of mouse B16-F10 cells at 5 uM incubated for 16 hrs by Lyso Tracker Green based confocal laser scanning microscopy analysis; assay type: ADME, subcellular; settings: b16-f10, 16 h
# B16-F10 [8] = assay: Antitumor activity against mouse B16-F10 cells implanted in C57BL/6 mouse assessed as tumor destruction at 2 mg/kg, iv irradiated with 60 J/cm^2 laser light measured after 14 days by hematoxylin and eosin based microscopic analysis; assay type: functional, organism-based; settings: time 14.0 day
# B16-F10 [9] = assay: Photodynamic therapy in mouse B16-F10 cells implanted in C57BL/6 mouse model assessed as increase infiltration of CD4+ T cells measured after 3 days by immunofluorescence staining based analysis; assay type: functional, cell-based; settings: time 3.0 day
# [10] = Biodistribution in liver of C57BL/6 mouse harboring mouse B16-F10 cells at 2 mg/kg, iv measured after 12 hrs by flourescence imaging assay; assay type: ADME, organism-based; settings: in vivo
# [11] = Phototoxicity against mouse B16-F10 cells assessed as reduction in cell viability incubated for 16 hrs followed by irradiated with 54 J/cm^2 of light dose and further incubated for 24 hrs by CCK-8 assay; assay type: toxicity, cell-based; settings: B16-F10, light or radiation study
# B16-F10 [12] = assay: Induction of apoptosis in mouse B16-F10 cells assessed as viable cells at 10 nM incubated for 16 hrs followed by irradiated with 54 J/cm^2 of light dose by Annexin V-FITC/PI based flow cytometric analysis (reference value: 87.45 %); assay type: functional; settings: B16-F10, light or radiation study, read-out: Activity
# [13] = Biodistribution in whole body of C57BL/6 mouse harboring B16-F10 cells at 2 mg/kg, iv measured after 12 hrs by flourescence imaging assay; assay type: ADME, organism-based; settings: in vivo
# B16-F10 [14] = assay: Photodynamic therapy in mouse B16-F10 cells implanted in C57BL/6 mouse model assessed as increase infiltration of CD8+ T cells measured after 3 days by immunofluorescence staining based analysis; assay type: functional, cell-based; settings: time 3.0 day
# [15] = Drug localisation in mitochondria of human A-375 cells at 5 uM incubated for 16 hrs by Mito Tracker Green FM based confocal laser scanning microscopy analysis; assay type: ADME; settings: a-375, 16 h
# B16-F10 [16] = assay: Antitumor immunity against mouse B16-F10 cells assessed as release of HMGB1 at 250 nM incubated for 16 hrs followed by irradiated with 54 J/cm^2 light dose and further incubated for 6 hrs by Alexa Fluor 488/Hoechst 33342 staining based confocal laser scanning microscopy; assay type: functional, cell-based
# B16-F10 [17] = assay: Biodistribution in tumor of C57BL/6 mouse harboring mouse B16-F10 cells at 2 mg/kg, iv measured after 12 hrs by flourescence imaging assay; assay type: ADME, organism-based; settings: in vivo
# A-375 [18] = assay: Induction of apoptosis in human A-375 cells assessed as total apoptotic cells at 10 nM incubated for 16 hrs followed by irradiated with 54 J/cm^2 light dose by Annexin V-FITC/PI based flow cytometric analysis (reference value: 4.79 %); assay type: functional
# B16-F10 [19] = assay: Photodynamic therapy in mouse B16-F10 cells implanted in C57BL/6 mouse model assessed as increase in infiltration of CD4+ T cells by APC/FITC/PE staining based flow cytometric analysis (reference value: 4.85 %); assay type: functional
# B16-F10 [20] = assay: Induction of apoptosis in mouse B16-F10 cells assessed as necrotic cells at 10 nM incubated for 16 hrs followed by irradiated with 54 J/cm^2 light dose by Annexin V-FITC/PI based flow cytometric analysis (reference value: 3.75 %); assay type: functional
# A-375 [21] = assay: Induction of ROS generation in human A-375 cells assessed as cells with high intracellular ROS levels at 20 nM incubated for 16 hrs followed by irradiated with 54 J/cm2 light dose by H2DCFDA fluorescent probe based flow cytometry method (reference value: 2.09 %); assay type: functional
# [22] = Aqueous solubility in PBS; assay type: physicochemical; settings: buffer
# [23] = Drug localisation in endoplasmic reticulum of mouse B16-F10 cells at 5 uM incubated for 16 hrs by ER Tracker Green based confocal laser scanning microscopy analysis; assay type: ADME, subcellular; settings: b16-f10, 16 h
# HeLa = assay: Dark toxicity against human HeLa cells assessed as reduction in cell viability incubated for 16 hrs by CCK-8 assay; assay type: functional, cell-based
# B16-F10 [24] = assay: Induction of ROS generation in mouse B16-F10 cells assessed as cells with high intracellular ROS levels at 10 nM incubated for 16 hrs followed by irradiated with 54 J/cm^2 of light dose by H2DCFDA fluorescent probe based flow cytometry method (reference value: 1.96 %); assay type: functional
# B16-F10 [25] = assay: Induction of ROS generation in mouse B16-F10 cells assessed as cells with high intracellular ROS levels at 100 nM incubated for 16 hrs followed by irradiated with 54 J/cm^2 of light dose by H2DCFDA fluorescent probe based flow cytometry method (reference value: 1.96 %); assay type: functional
# A-375 [26] = assay: Induction of ROS generation in human A-375 cells assessed as cells with high intracellular ROS levels at 10 nM incubated for 16 hrs followed by irradiated with 54 J/cm2 light dose by H2DCFDA fluorescent probe based flow cytometry method (reference value: 2.09 %); assay type: functional
# [27] = Biodistribution in lungs of C57BL/6 mouse harboring mouse B16-F10 cells at 2 mg/kg, iv measured after 12 hrs by flourescence imaging assay; assay type: ADME, organism-based, Lung; settings: in vivo
# A-375 [28] = assay: Induction of apoptosis in human A-375 cells assessed as total apoptotic cells at 50 nM incubated for 16 hrs followed by irradiated with 54 J/cm^2 light dose by Annexin V-FITC/PI based flow cytometric analysis (reference value: 4.79 %); assay type: functional
# [29] = Drug localisation in lysosome of human A-375 cells at 5 uM incubated for 16 hrs by Lyso Tracker Green based confocal laser scanning microscopy analysis; assay type: ADME, subcellular; settings: a-375, 16 h
# B16-F10 [30] = assay: Antitumor immunity against mouse B16-F10 cells assessed as surface translocation of CRT at 10 nM incubated for 16 hrs followed by irradiated with 54 J/cm^2 light dose and further incubated for 6 hrs by Alexa Fluor 488/Hoechst 33342 staining based confocal laser scanning microscopy; assay type: functional, cell-based
# [31] = Biodistribution in spleen of C57BL/6 mouse harboring mouse B16-F10 cells at 2 mg/kg, iv measured after 12 hrs by flourescence imaging assay; assay type: ADME, organism-based; settings: in vivo
smiles,measurement,setting,value
COc1ccc(C2=[N+]3C(=Nc4c(-c5ccccc5)c5c(n4[B-]3(F)F)-c3ccc(OCC(=O)N[C@@H](CC(=O)O)C(=O)O)cc3CC5)C(c3ccccc3)=C2I)cc1,Activity,B16-F10 [1],75.41%
same,logP,[2],-0.77
same,viability at 0.25 µM,B16-F10 [3],3.76%
same,Activity,B16-F10 [4],40.92%
same,Drug uptake,[5],Active
same,Activity,B16-F10 [6],2.93%
same,Drug uptake,[7],Active
same,Activity,B16-F10 [8],Active
same,Activity,B16-F10 [9],Active
same,Drug uptake,[10],Active
same,IC50,[11],65 nM
same,viability at 0.01 µM,B16-F10 [12],88.9%
same,Drug uptake,[13],Active
same,Activity,B16-F10 [14],Active
same,Drug uptake,[15],Active
same,Activity,B16-F10 [16],inactive
same,Drug uptake,B16-F10 [17],Active
same,Activity,A-375 [18],6.68%
same,Activity,B16-F10 [19],8.11%
same,Activity,B16-F10 [20],0.88%
same,Activity,A-375 [21],4.57%
same,solubility,[22],165 µM
same,Drug uptake,[23],Active
same,IC50,HeLa,> 250 µM
same,Activity,B16-F10 [24],2.67%
same,Activity,B16-F10 [25],70.29%
same,Activity,A-375 [26],2.48%
same,Drug uptake,[27],Active
same,Activity,A-375 [28],66.46%
same,Drug uptake,[29],Active
same,Activity,B16-F10 [30],inactive
same,Drug uptake,[31],Active
